Data taken from PubChem BioAssay AID1963977 (Molecular Pharmacology Branch, DTP, NCI, 2024).

Tested on: 624824-186-R-J3-PDC multicell spheroids, viability
Assay: Anticancer human tumor 624824-186-R-J3-PDC patient-derived colon adenocarcinoma cell line growth inhibition [PI3K]
Settings: for IC50: curve of first compound; for viability, T/C: stronger effect = lower value
Outline: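 Spheroid viability read-out. Co-cultures contained the tumor line plus HUVEC and human MSCs. Each agent was paired with a PI3K inhibitor (inavolisib, alpelisib, duvelisib, copanlisib) across half-log dilutions starting at clinical Cmax, or at 10 microM when Cmax was unknown.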

[1] = second compound 0.0316 µM, first compound 0.0316 µM
[2] = second compound 0.0316 µM, first compound 0.1 µM
[3] = second compound 0.0316 µM, first compound 0.316 µM
[4] = second compound 0.0316 µM, first compound 1 µM
[5] = second compound 0.0316 µM, first compound 3.16 µM
[6] = second compound 0.0316 µM, first compound 10 µM
[7] = second compound 0.1 µM, first compound 0.0316 µM
[8] = second compound 0.1 µM, first compound 0.1 µM
[9] = second compound 0.1 µM, first compound 0.316 µM
[10] = second compound 0.1 µM, first compound 1 µM
[11] = second compound 0.1 µM, first compound 3.16 µM
[12] = second compound 0.1 µM, first compound 10 µM
[13] = second compound 0.316 µM, first compound 0.0316 µM
[14] = second compound 0.316 µM, first compound 0.1 µM
[15] = second compound 0.316 µM, first compound 0.316 µM
[16] = second compound 0.316 µM, first compound 1 µM
[17] = second compound 0.316 µM, first compound 3.16 µM
[18] = second compound 0.316 µM, first compound 10 µM
[19] = second compound 1 µM, first compound 0.0316 µM
[20] = second compound 1 µM, first compound 0.1 µM
[21] = second compound 1 µM, first compound 0.316 µM
[22] = second compound 1 µM, first compound 1 µM
[23] = second compound 1 µM, first compound 3.16 µM
[24] = second compound 1 µM, first compound 10 µM
[25] = second compound 3.16 µM, first compound 0.0316 µM
[26] = second compound 3.16 µM, first compound 0.1 µM
[27] = second compound 3.16 µM, first compound 0.316 µM
[28] = second compound 3.16 µM, first compound 1 µM
[29] = second compound 3.16 µM, first compound 3.16 µM
[30] = second compound 3.16 µM, first compound 10 µM
[31] = second compound 10 µM, first compound 0.0316 µM
[32] = second compound 10 µM, first compound 0.1 µM
[33] = second compound 10 µM, first compound 0.316 µM
[34] = second compound 10 µM, first compound 1 µM
[35] = second compound 10 µM, first compound 3.16 µM
[36] = second compound 10 µM, first compound 10 µM
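Further: spheroids exposed to agents for seven days before luminescence read.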
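Wherever viability, T/C is given: luminescent signal used as a stand-in for spheroid viability; percent viability relative to DMSO vehicle control wells taken as 100%.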

**Q.** Which results are given for `CC1(C)CCC(CN2CCN(c3ccc(C(=O)NS(=O)(=O)c4ccc(NCC5CCOCC5)c([N+](=O)[O-])c4)c(Oc4cnc5[nH]ccc5c4)c3)CC2)=C(c2ccc(Cl)cc2)C1` + Cc1nc(NC(=O)N2CCCC2C(N)=O)sc1-c1ccnc(C(C)(C)C(F)(F)F)c1?
**A.** IC50 (second compound 0.0316 µM): 9.73 µM; IC50 (second compound 0.1 µM): 9.43 µM; IC50 (second compound 0.316 µM): > 10 µM; IC50 (second compound 1 µM): > 10 µM; IC50 (second compound 3.16 µM): 8.59 µM; IC50 (second compound 10 µM): 5.3 µM; viability, T/C [1]: 106%; viability, T/C [2]: 99.3%; viability, T/C [3]: 106%; viability, T/C [4]: 101%; viability, T/C [5]: 119%; viability, T/C [6]: 48.7%; viability, T/C [7]: 103%; viability, T/C [8]: 99.9%; viability, T/C [9]: 104%; viability, T/C [10]: 107%; viability, T/C [11]: 118%; viability, T/C [12]: 46.9%; viability, T/C [13]: 119%; viability, T/C [14]: 104%; viability, T/C [15]: 107%; viability, T/C [16]: 103%; viability, T/C [17]: 116%; viability, T/C [18]: 54.6%; viability, T/C [19]: 96.2%; viability, T/C [20]: 93.8%; viability, T/C [21]: 106%; viability, T/C [22]: 96.9%; viability, T/C [23]: 104%; viability, T/C [24]: 53.2%; viability, T/C [25]: 82.5%; viability, T/C [26]: 91.4%; viability, T/C [27]: 90.8%; viability, T/C [28]: 81.8%; viability, T/C [29]: 91.3%; viability, T/C [30]: 44.3%; viability, T/C [31]: 69.9%; viability, T/C [32]: 73.8%; viability, T/C [33]: 70.1%; viability, T/C [34]: 69.7%; viability, T/C [35]: 63.7%; viability, T/C [36]: 33.3%

**Q.** How did the IC50 (second compound 0.0316 µM) turn out when `C[C@@H](NC(=O)c1ncnc(N)c1Cl)c1ncc(C(=O)Nc2cc(C(F)(F)F)c(Cl)cn2)s1` + Cc1nc(NC(=O)N2CCCC2C(N)=O)sc1-c1ccnc(C(C)(C)C(F)(F)F)c1 was run?
**A.** Its IC50 is over 10 µM.

**Q.** What about the IC50 (second compound 0.1 µM) of the same compound?
**A.** The IC50 was over 10 µM.

**Q.** What about the IC50 (second compound 0.316 µM) of the same compound?
**A.** Its IC50 is over 10 µM.

**Q.** And the IC50 (second compound 1 µM)?
**A.** Its IC50 is over 10 µM.

**Q.** And the IC50 (second compound 3.16 µM)?
**A.** The IC50 was 4.57 µM.

**Q.** And the IC50 (second compound 10 µM)?
**A.** Its IC50 is 0.66 µM.

**Q.** What about the viability, T/C [1] of the same compound?
**A.** Its viability, T/C is 108%.

**Q.** What about the viability, T/C [2] of the same compound?
**A.** The viability, T/C was 99.1%.

**Q.** What about the viability, T/C [3] of the same compound?
**A.** The viability, T/C was 102%.

**Q.** What about the viability, T/C [4] of the same compound?
**A.** The viability, T/C was 97%.

**Q.** What about the viability, T/C [5] of the same compound?
**A.** Its viability, T/C is 98.8%.

**Q.** And the viability, T/C [6]?
**A.** The viability, T/C was 103%.

**Q.** And the viability, T/C [7]?
**A.** The viability, T/C was 111%.

**Q.** And the viability, T/C [8]?
**A.** The viability, T/C was 106%.

**Q.** And the viability, T/C [9]?
**A.** Its viability, T/C is 98.6%.

**Q.** And the viability, T/C [10]?
**A.** Its viability, T/C is 103%.

**Q.** What about the viability, T/C [11] of the same compound?
**A.** Its viability, T/C is 109%.

**Q.** What about the viability, T/C [12] of the same compound?
**A.** The viability, T/C was 91%.

**Q.** And the viability, T/C [13]?
**A.** The viability, T/C was 101%.

**Q.** And the viability, T/C [14]?
**A.** The viability, T/C was 114%.

**Q.** What about the viability, T/C [15] of the same compound?
**A.** The viability, T/C was 99%.

**Q.** And the viability, T/C [16]?
**A.** The viability, T/C was 98.6%.

**Q.** And the viability, T/C [17]?
**A.** The viability, T/C was 106%.

**Q.** What about the viability, T/C [18] of the same compound?
**A.** The viability, T/C was 72.6%.

**Q.** What about the viability, T/C [19] of the same compound?
**A.** The viability, T/C was 104%.

**Q.** What about the viability, T/C [20] of the same compound?
**A.** Its viability, T/C is 110%.

**Q.** What about the viability, T/C [21] of the same compound?
**A.** Its viability, T/C is 99.1%.

**Q.** What about the viability, T/C [22] of the same compound?
**A.** The viability, T/C was 97.8%.

**Q.** And the viability, T/C [23]?
**A.** The viability, T/C was 86.5%.

**Q.** What about the viability, T/C [24] of the same compound?
**A.** Its viability, T/C is 52.4%.

**Q.** And the viability, T/C [25]?
**A.** Its viability, T/C is 91.5%.

**Q.** And the viability, T/C [26]?
**A.** The viability, T/C was 85.5%.

**Q.** What about the viability, T/C [27] of the same compound?
**A.** The viability, T/C was 82.7%.

**Q.** What about the viability, T/C [28] of the same compound?
**A.** Its viability, T/C is 75.8%.

**Q.** And the viability, T/C [29]?
**A.** The viability, T/C was 59.1%.

**Q.** And the viability, T/C [30]?
**A.** Its viability, T/C is 30.7%.

**Q.** What about the viability, T/C [31] of the same compound?
**A.** The viability, T/C was 74.1%.

**Q.** What about the viability, T/C [32] of the same compound?
**A.** The viability, T/C was 76.4%.

**Q.** And the viability, T/C [33]?
**A.** Its viability, T/C is 56%.

**Q.** And the viability, T/C [34]?
**A.** Its viability, T/C is 46.2%.

**Q.** What about the viability, T/C [35] of the same compound?
**A.** The viability, T/C was 29.6%.

**Q.** And the viability, T/C [36]?
**A.** The viability, T/C was 21.5%.

**Q.** What does the source list for `Cn1ncnc1[C@H]1c2n[nH]c(=O)c3cc(F)cc(c23)N[C@@H]1c1ccc(F)cc1` + Cc1nc(NC(=O)N2CCCC2C(N)=O)sc1-c1ccnc(C(C)(C)C(F)(F)F)c1?
**A.** IC50 (second compound 0.0316 µM): > 0.1 µM; IC50 (second compound 0.1 µM): > 0.1 µM; IC50 (second compound 0.316 µM): > 0.1 µM; IC50 (second compound 1 µM): > 0.1 µM; IC50 (second compound 3.16 µM): > 0.1 µM; IC50 (second compound 10 µM): > 0.1 µM; viability, T/C (second compound 0.0316 µM, first compound 0.000316 µM): 106%; viability, T/C (second compound 0.0316 µM, first compound 0.001 µM): 106%; viability, T/C (second compound 0.0316 µM, first compound 0.00316 µM): 101%; viability, T/C (second compound 0.0316 µM, first compound 0.01 µM): 108%; viability, T/C [1]: 111%; viability, T/C [2]: 96.7%; viability, T/C (second compound 0.1 µM, first compound 0.000316 µM): 104%; viability, T/C (second compound 0.1 µM, first compound 0.001 µM): 108%; viability, T/C (second compound 0.1 µM, first compound 0.00316 µM): 111%; viability, T/C (second compound 0.1 µM, first compound 0.01 µM): 101%; viability, T/C [7]: 101%; viability, T/C [8]: 102%; viability, T/C (second compound 0.316 µM, first compound 0.000316 µM): 102%; viability, T/C (second compound 0.316 µM, first compound 0.001 µM): 115%; viability, T/C (second compound 0.316 µM, first compound 0.00316 µM): 102%; viability, T/C (second compound 0.316 µM, first compound 0.01 µM): 103%; viability, T/C [13]: 105%; viability, T/C [14]: 98.8%; viability, T/C (second compound 1 µM, first compound 0.000316 µM): 96.6%; viability, T/C (second compound 1 µM, first compound 0.001 µM): 106%; viability, T/C (second compound 1 µM, first compound 0.00316 µM): 110%; viability, T/C (second compound 1 µM, first compound 0.01 µM): 83.9%; viability, T/C [19]: 101%; viability, T/C [20]: 99%; viability, T/C (second compound 3.16 µM, first compound 0.000316 µM): 81%; viability, T/C (second compound 3.16 µM, first compound 0.001 µM): 83%; viability, T/C (second compound 3.16 µM, first compound 0.00316 µM): 90.8%; viability, T/C (second compound 3.16 µM, first compound 0.01 µM): 87%; viability, T/C [25]: 91.8%; viability, T/C [26]: 83.6%; viability, T/C (second compound 10 µM, first compound 0.000316 µM): 70%; viability, T/C (second compound 10 µM, first compound 0.001 µM): 74.3%; viability, T/C (second compound 10 µM, first compound 0.00316 µM): 70.7%; viability, T/C (second compound 10 µM, first compound 0.01 µM): 66.7%; viability, T/C [31]: 67.7%; viability, T/C [32]: 76.9%
